In patent publication US10584124B2, “Crystalline forms” (Array BioPharma Inc., priority 2017, dated 2020):
Where two headings read alike, the source gives them in different places. Blank lines part the entries; values can stand above or below the molecule they belong to.

Assays:
[1] = Isothermic (25° C.) DVS analysis of salts of the compound of Formula I; assay type: physicochemical; conditions: for Mass gain by DVS: 80% relative humidity, 25° C.; for Hygroscopicity by DVS (in words): isothermic 25° C.; for Deliquescence upon removal from the DVS chamber: sample remained a free-flowing powder
Description: (FIG. 16D). […] Some hysteresis was observed. […] (FIG. 16C). […] (FIG. 16D).
(FIG. 18A). […] (FIG. 18B). […] Some hysteresis was observed. […] An overlay of FTIR spectra of the L- and D-malic acid salts is shown in FIG. 18F. ^1H NMR spectra of the L- and D-malic salts in DMSO-d^6 are shown in FIG. 18G-18H, respectively.

[2] = Solubility test of the D-malic acid salt (room temperature, 60° C., 70° C.); assay type: physicochemical; conditions: for Solids dissolve at 70° C.?: 70° C. for approximately 3.0 hours
[3] = Stability screening of freebase and selected salts of Formula I, 40° C. and 75% RH, weekly HPLC over 4 weeks; conditions: for Absolute % change: 40° C. and 75% RH, T = 0 to 4 weeks; for Stability, HPLC analysis, T = 1 week / Stability, HPLC analysis, T = 2 weeks / Stability, HPLC analysis, T = 3 weeks / Stability, HPLC analysis, T = 4 weeks / Stability, HPLC analysis, T = 0: stored at 40° C. and 75% RH
GVS hygroscopicity = assay type: physicochemical
Description: The instruments and methods of analysis used in the polymorph screens described in Examples 5 are described in Example 4, above.

[4] = Solubility screening of the compound of Formula IV (freebase) in solvent mixtures; assay type: physicochemical; conditions: approximately 25° C.

Structure (SMILES): COc1ccc(CN2CCN(c3ccc(-c4cc(-c5cnn(C)c5)cn5ncc(C#N)c45)cn3)CC2)cn1.O=C(O)C[C@@H](O)C(=O)O [D-malic acid salt]
Mass gain by DVS [1]: approximately 2.8%
Hygroscopicity by DVS (in words) [1]: hygroscopic
Deliquescence upon removal from the DVS chamber [1]: no observable deliquescence
Solids dissolve at 60° C.? ([2]; 60° C. for 3.0 hours, solvent 0.1M HCl, Yes): Yes (>15 mg/mL)
Solids dissolve at 60° C.? ([2]; 60° C. for 3.0 hours, solvent 2-methyl THF): No
Solids dissolve at 60° C.? ([2]; 60° C. for 3.0 hours, solvent ACN): No
Solids dissolve at 60° C.? ([2]; 60° C. for 3.0 hours, solvent Acetone): No
Solids dissolve at 60° C.? ([2]; 60° C. for 3.0 hours, solvent DCE): No
Solids dissolve at 60° C.? ([2]; 60° C. for 3.0 hours, solvent DMSO, Yes): Yes (>40 mg/mL)
Solids dissolve at 60° C.? ([2]; 60° C. for 3.0 hours, solvent EtOAc): No
Solids dissolve at 60° C.? ([2]; 60° C. for 3.0 hours, solvent EtOH): No
Solids dissolve at 60° C.? ([2]; 60° C. for 3.0 hours, solvent IPA): No
Solids dissolve at 60° C.? ([2]; 60° C. for 3.0 hours, solvent MEK): No
Solids dissolve at 60° C.? ([2]; 60° C. for 3.0 hours, solvent MTBE): No
Solids dissolve at 60° C.? ([2]; 60° C. for 3.0 hours, solvent MeOH): No
Solids dissolve at 60° C.? ([2]; 60° C. for 3.0 hours, solvent Toluene): No
Solids dissolve at 60° C.? ([2]; 60° C. for 3.0 hours, solvent iPAc): No
Solids dissolve at 60° C.? ([2]; 60° C. for 3.0 hours, solvent water): No
Solids dissolve at 70° C.? ([2]; solvent 2-methyl THF): No
Solids dissolve at 70° C.? ([2]; solvent ACN): No
Solids dissolve at 70° C.? ([2]; solvent DCE): No
Solids dissolve at 70° C.? ([2]; solvent DMSO, Yes): Yes (>56 mg/mL)
Solids dissolve at 70° C.? ([2]; solvent EtOAc): No
Solids dissolve at 70° C.? ([2]; solvent EtOH): No
Solids dissolve at 70° C.? ([2]; solvent IPA): No
Solids dissolve at 70° C.? ([2]; solvent MEK): No
Solids dissolve at 70° C.? ([2]; solvent MTBE): No
Solids dissolve at 70° C.? ([2]; solvent Toluene): No
Solids dissolve at 70° C.? ([2]; solvent iPAc): No
Solids dissolve at 70° C.? ([2]; solvent water): No
Solids dissolve at 60° C.? ([2]; solvent THF, cell says At 65° C.): ~10 mg/mL
Absolute % change [3]: 0.6%
Stability, HPLC analysis, T = 1 week [3]: 97.6%
Stability, HPLC analysis, T = 2 weeks [3]: 97.4%
Stability, HPLC analysis, T = 3 weeks [3]: 97.2%
Stability, HPLC analysis, T = 4 weeks [3]: 97.1%
Stability, HPLC analysis, T = 0 [3]: 97.7%

Structure (SMILES): COc1ccc(CN2C3CC2CN(c2ccc(-c4cc(OCC(C)(C)O)cn5ncc(C#N)c45)cn2)C3)cn1 [Form 1]
Hygroscopicity by GVS (in words) (GVS hygroscopicity): moderately hygroscopic
Weight increase by GVS (GVS hygroscopicity; at 90% RH): 2.6%

Structure (SMILES): COc1ccc(CN2CCN(c3ccc(-c4cc(-c5cnn(C)c5)cn5ncc(C#N)c45)cn3)CC2)cn1.Cl [HCl salt]
Mass gain by DVS [1]: approximately 5%
Hygroscopicity by DVS (in words) [1]: hygroscopic
Deliquescence upon removal from the DVS chamber [1]: no observable deliquescence
Absolute % change [3]: 0.0%
Stability, HPLC analysis, T = 1 week [3]: 99.3%
Stability, HPLC analysis, T = 2 weeks [3]: 99.3%
Stability, HPLC analysis, T = 3 weeks [3]: 99.3%
Stability, HPLC analysis, T = 4 weeks [3]: 99.3%
Stability, HPLC analysis, T = 0 [3]: 99.3%

solubility ([4]; Water): 0.007 mg/mL
solubility ([4]; aqueous with cosolvent or surfactant or cyclodextrin, Acetone:water (1:1)): 45.8 mg/mL
solubility ([4]; aqueous with cosolvent or surfactant or cyclodextrin, EtOH:water (1:1)): 51 mg/mL
solubility ([4]; organic solvent or mixture, ACN): 21.2 mg/mL
solubility ([4]; organic solvent or mixture, Acetone): 42.9 mg/mL
solubility ([4]; organic solvent or mixture, Acetone:heptane (1:1)): 6.1 mg/mL
solubility ([4]; organic solvent or mixture, Butanol): 16.6 mg/mL
solubility ([4]; organic solvent or mixture, Chloroform): > 59 mg/mL
solubility ([4]; organic solvent or mixture, Chloroform:heptane (1:1)): 11.7 mg/mL
solubility ([4]; organic solvent or mixture, DCM): > 70 mg/mL
solubility ([4]; organic solvent or mixture, EtOH:water (90:10)): 55 mg/mL
solubility ([4]; organic solvent or mixture, Ethanol): 5.2 mg/mL
solubility ([4]; organic solvent or mixture, Ethyl acetate): 21 mg/mL
solubility ([4]; organic solvent or mixture, IPA): 7 mg/mL
solubility ([4]; organic solvent or mixture, MEK): 30.7 mg/mL
solubility ([4]; organic solvent or mixture, MTBE): 5.5 mg/mL
solubility ([4]; organic solvent or mixture, Methanol): > 74 mg/mL
solubility ([4]; organic solvent or mixture, THF): > 37 mg/mL
solubility ([4]; organic solvent or mixture, THF:heptane (30:70)): 0.6 mg/mL
solubility ([4]; organic solvent or mixture, p-dioxane): > 62 mg/mL
Structure (SMILES): CC(C)(O)COc1cc(-c2ccc(N3CCC(O)(Cc4ccccn4)CC3)nc2)c2c(C#N)cnn2c1 [compound of Formula IV, 6-(2-hydroxy-2-methylpropoxy)-4-(6-(4-hydroxy-4-(pyridin-2-ylmethyl)piperidin-1-yl)pyridin-3-yl)pyrazolo[1,5-a]pyridine-3-carbonitrile]

Structure (SMILES): COc1ccc(CN2C3CC2CN(c2ccc(-c4cc(OCC(C)(C)O)cn5ncc(C#N)c45)cn2)C3)cn1.O=P(O)(O)O [phosphate salt]
Hygroscopicity by GVS (in words) (GVS hygroscopicity): highly hygroscopic
Weight increase by GVS (GVS hygroscopicity): approximately 14%
Form and crystallinity by XRPD after 7-day stability tests (ambient temperature and light, 40° C./75% RH, 80° C.): no change in form or crystallinity
Purity after 7-day stability storage (stored 7 days at 40° C./75% RH): 97.44%
Purity after 7-day stability storage (stored 7 days at 80° C.): 64.96%
Purity after 7-day stability storage (stored 7 days at RT (ambient temperature and light)): 98.03%
